Test results as given in article PMC10322960 (European Journal of Drug Metabolism and Pharmacokinetics, 2023).
pIC50: −log10 of the molar value.

Columns and labels:
CYP3A4 = CYP3A4 (Homo sapiens, UniProt P08684); type: in vitro ADME; settings: 3 µm ocedurenone, NADPH, 60 min
[1] = system: CYP1A2, CYP2A6, CYP2B6, CYP2C8, CYP2C9, CYP2C19, CYP2D6, CYP2E1, and CYP4A11; experiment: Recombinant CYP incubation; type: in vitro ADME, human; settings: 3 µm ocedurenone, NADPH, 60 min
CYP2C8 = biological target: T1, CYP2C8 (Homo sapiens, UniProt P10632); experiment: In vitro P450 inhibition, recombinant CYP2C8; type: in vitro ADME
T1 sequence (P10632 1-490): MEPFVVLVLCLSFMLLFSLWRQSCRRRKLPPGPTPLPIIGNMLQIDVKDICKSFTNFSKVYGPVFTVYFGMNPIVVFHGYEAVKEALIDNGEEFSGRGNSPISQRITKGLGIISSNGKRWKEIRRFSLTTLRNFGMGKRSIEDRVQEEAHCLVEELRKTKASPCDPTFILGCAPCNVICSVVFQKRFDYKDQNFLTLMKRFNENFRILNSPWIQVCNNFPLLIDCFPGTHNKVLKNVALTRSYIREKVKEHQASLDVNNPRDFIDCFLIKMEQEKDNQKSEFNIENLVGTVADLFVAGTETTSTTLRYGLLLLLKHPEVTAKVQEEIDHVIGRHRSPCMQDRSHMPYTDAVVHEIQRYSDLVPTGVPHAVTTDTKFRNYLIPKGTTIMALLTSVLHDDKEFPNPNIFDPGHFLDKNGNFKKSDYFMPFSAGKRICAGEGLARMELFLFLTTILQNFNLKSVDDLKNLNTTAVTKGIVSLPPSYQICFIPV

MATE1 [2] = biological target: T2, MATE1 (Homo sapiens, UniProt Q96FL8); experiment: MATE1 uptake inhibition assay; type: in vitro ADME
T2 sequence (Q96FL8 1-570): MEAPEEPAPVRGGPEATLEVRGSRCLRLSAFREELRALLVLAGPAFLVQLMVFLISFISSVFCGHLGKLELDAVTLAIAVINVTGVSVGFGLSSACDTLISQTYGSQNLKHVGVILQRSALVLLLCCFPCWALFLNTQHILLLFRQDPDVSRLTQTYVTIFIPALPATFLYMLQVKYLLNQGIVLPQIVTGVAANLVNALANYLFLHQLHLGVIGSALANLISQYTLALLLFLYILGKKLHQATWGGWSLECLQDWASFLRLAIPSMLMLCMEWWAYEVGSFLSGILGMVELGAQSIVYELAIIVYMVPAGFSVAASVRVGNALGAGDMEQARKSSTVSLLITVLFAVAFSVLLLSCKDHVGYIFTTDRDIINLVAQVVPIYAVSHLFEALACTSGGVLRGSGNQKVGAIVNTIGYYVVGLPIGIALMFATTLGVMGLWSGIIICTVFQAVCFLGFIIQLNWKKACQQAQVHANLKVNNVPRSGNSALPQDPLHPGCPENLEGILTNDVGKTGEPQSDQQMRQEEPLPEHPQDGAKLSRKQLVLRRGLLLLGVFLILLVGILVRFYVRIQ

OATP1B1 = biological target: T3, OATP1B1 (Homo sapiens, UniProt Q9Y6L6); experiment: OATP1B1 uptake inhibition assay; type: in vitro ADME
T3 sequence (Q9Y6L6 1-691): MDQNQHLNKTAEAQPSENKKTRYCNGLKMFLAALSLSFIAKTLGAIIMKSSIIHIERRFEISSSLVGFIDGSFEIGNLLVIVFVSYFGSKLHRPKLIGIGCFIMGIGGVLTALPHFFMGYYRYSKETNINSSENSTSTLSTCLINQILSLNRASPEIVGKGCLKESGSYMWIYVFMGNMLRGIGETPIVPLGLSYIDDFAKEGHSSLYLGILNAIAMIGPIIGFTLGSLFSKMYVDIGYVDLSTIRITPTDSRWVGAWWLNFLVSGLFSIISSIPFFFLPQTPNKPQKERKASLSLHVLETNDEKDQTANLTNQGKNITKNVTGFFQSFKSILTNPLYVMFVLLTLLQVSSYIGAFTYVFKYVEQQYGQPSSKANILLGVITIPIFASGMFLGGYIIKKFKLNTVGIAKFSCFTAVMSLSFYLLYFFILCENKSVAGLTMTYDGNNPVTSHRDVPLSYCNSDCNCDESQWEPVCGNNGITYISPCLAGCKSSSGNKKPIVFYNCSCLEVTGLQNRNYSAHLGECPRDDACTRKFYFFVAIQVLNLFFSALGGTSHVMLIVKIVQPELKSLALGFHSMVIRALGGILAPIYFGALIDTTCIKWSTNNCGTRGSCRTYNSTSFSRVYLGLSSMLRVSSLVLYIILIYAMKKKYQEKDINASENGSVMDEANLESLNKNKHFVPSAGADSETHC

MATE1 [3] = biological target: T2, MATE1; experiment: MATE1 uptake substrate assay; type: in vitro ADME
OATP1B3 = biological target: T4, OATP1B3 (Homo sapiens, UniProt Q9NPD5); experiment: OATP1B3 uptake substrate assay; type: in vitro ADME
T4 sequence (Q9NPD5 1-702): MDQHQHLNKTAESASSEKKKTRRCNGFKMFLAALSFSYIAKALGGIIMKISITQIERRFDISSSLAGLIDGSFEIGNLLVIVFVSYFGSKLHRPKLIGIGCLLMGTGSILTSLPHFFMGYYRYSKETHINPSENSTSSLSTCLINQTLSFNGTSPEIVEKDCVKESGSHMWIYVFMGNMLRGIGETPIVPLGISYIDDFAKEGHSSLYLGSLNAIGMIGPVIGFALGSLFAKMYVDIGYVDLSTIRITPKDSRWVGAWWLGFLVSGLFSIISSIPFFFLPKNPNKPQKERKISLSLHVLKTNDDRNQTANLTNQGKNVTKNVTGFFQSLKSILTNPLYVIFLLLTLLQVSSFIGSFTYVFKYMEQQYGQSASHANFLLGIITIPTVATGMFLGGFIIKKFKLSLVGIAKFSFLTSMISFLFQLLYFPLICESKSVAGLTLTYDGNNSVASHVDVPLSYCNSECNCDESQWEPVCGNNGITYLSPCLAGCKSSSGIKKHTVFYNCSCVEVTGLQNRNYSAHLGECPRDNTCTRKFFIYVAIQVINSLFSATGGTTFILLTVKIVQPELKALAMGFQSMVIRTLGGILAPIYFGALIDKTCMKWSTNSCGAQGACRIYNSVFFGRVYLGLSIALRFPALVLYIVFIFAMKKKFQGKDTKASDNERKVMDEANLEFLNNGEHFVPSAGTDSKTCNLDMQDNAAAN

[4] = following 0.5-mg dose at steady state; not from this study, ref not given; cited from earlier work
[5] = transporter-expressing vs control cells, 0.04–40 µm

CYP3A4, sequence (P08684 whole entry): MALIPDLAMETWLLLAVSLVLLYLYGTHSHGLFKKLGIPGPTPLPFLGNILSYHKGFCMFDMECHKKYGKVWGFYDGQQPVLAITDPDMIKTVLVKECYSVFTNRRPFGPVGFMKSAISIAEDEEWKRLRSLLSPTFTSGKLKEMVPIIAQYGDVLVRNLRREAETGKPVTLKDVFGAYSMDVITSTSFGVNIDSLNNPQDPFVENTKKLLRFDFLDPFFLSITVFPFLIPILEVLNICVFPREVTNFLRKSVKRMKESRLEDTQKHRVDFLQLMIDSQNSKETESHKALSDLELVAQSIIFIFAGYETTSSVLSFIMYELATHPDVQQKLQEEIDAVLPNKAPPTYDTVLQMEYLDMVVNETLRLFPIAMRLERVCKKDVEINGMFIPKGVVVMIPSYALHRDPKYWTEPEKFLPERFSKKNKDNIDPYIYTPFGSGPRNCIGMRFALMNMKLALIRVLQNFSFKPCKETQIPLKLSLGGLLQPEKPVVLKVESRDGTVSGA

N#Cc1ccc(N2N=C3c4ccc(C(=O)N5CCC(O)CC5)nc4CC[C@@H]3[C@@H]2C2CCCC2)cc1Cl [Ocedurenone, ocedurenone]
metabolism in recombinant CYP3A4 incubation (CYP3A4): Most extensive metabolism
metabolism in incubations with other recombinant CYP isoenzymes [1]: minor metabolism
percentage remaining activity of CYP2C8 (CYP2C8; ocedurenone at 200 μM): 26.4%
pIC50 (CYP2C8; read-out: IC50 CYP2C8, recombinant CYP, results section): < 5.00
inhibition category CYP2C8 (CYP2C8; recombinant enzyme): weak inhibition (IC50 >10 μM categorized as weak inhibition)
maximum inhibition of MATE1-mediated probe substrate accumulation (MATE1 [2]; at 40 µM): 95%
pIC50 (MATE1 [2]; read-out: Inhibition results (IC50), MATE1 UPT, probe metformin (10 µm), Table 1): 5.17
maximum inhibition of OATP1B1-mediated probe substrate accumulation (OATP1B1; at 40 µM): 72%
pIC50 (OATP1B1; read-out: Inhibition results (IC50), OATP1B1 UPT, uptake assay): 4.66
Substrate, MATE1 UPT (MATE1 [3]): not likely to be a substrate
Maximum fold accumulation, MATE1 UPT (MATE1 [3]; [5]): 1.0
Substrate, OATP1B3 UPT (OATP1B3): not likely to be a substrate
Maximum fold accumulation, OATP1B3 UPT (OATP1B3; [5]): 1.1
plasma Cmax at steady state [4]: 32 to 40 ng/mL
